According to paper PMC11795524, “Melanin-Binding-Based Discovery of Topically Instilled Carbonic Anhydrase Inhibitors for Targeted Delivery and Prolonged Action in the Eye” (Molecular Pharmaceutics, 2025):
Several values for one entry are separate records, joined by “and”; a condition that tells them apart may be missing. Equal entries are not always repeated.

Assays:
[1] = target: T1, human carbonic anhydrase II (Homo sapiens, UniProt P00918); assay: Multiparametric surface plasmon resonance (MP-SPR) interaction kinetics with immobilized hCAII; type: binding; conditions: MP-SPR, 25 °C, 1:1 model
T1 construct: purchased Sigma
Description: All MP-SPR measurements were conducted at 25 °C using carboxymethyl dextran hydrogel-coated (CMD-3DM) sensors (BioNavis) and were based on the protocol described by Rogez-Florent et al.[22]
Human carbonic anhydrase isoenzyme II (Sigma) was immobilized using a standard amine coupling procedure with the Amine Coupling Kit (BioNavis) and phosphate buffered saline (PBS) (20 mM phosphate buffer, 150 mM NaCl, pH 7.4) as the background buffer. Before immobilization, the sensor surface was cleaned with 2 M sodium chloride and 10 mM sodium hydroxide for 6 min at a flow rate of 30 μL/min. Then, a constant flow rate of 10 μL/min was maintained throughout the immobilization steps. The surface was activated for 7 min with 200 mM 1-ethyl-3-(3-(dimethylamino)propyl)-carbodiimide (EDC) and 50 mM N-hydroxysuccinimide, immediately followed by a 5 min injection of 45 μg/mL hCAII solution in 10 mM acetate buffer, pH 5.5. In the reference flow channel, no enzyme was immobilized. Residual activated groups of the dextran matrix were deactivated by a 7 min injection of 1 M ethanolamine HCl, pH 8.3.
For analyzing CAIs, 1% (v/v) DMSO in PBS, pH 7.4, was used as a running buffer. All CAIs were dissolved in 100% DMSO and stored as 50 mM stock solutions. These stock solutions were further diluted with the running buffer and analyzed using a 3-fold (3–1000 nM) dilution series. […] Each analyte was injected at a flow rate of 100 μL/min, with an association time of 2 min and a dissociation time of 10 min. […] Seven concentrations were measured for each CAI per cycle, and a “wash all” step with running buffer was performed at the end of each cycle to minimize the carry over effects. Each CAI were assayed in triplicate across three independent experiments.
The acquired data were processed using MP-SPR Navi Data Viewer software (version 6.7.0.1, BioNavis) employing the weighted centroid method for determining the SPR peak angular position. Signals from the reference flow channel were subtracted from the corresponding signals of the flow channel containing immobilized hCAII. The moment of sample injection was selected as the zero-time point, where both the time and MP-SPR response were set to zero. Processed data were globally fitted to a simple 1:1 interaction model using TraceDrawer software (version 1.9.2, Ridgeview Instruments AB, Sweden) to obtain kinetic parameters.

[2] = Ocular pharmacokinetics in pigmented rats (iris-ciliary body, 3H-A01); type: in vivo, rat; conditions: for bound fraction: pigmented tissue
Text: Eight albino rats (RccHan/Wist) and 18 pigmented rats (HsdOla/LH) were obtained from Envigo Laboratories B.V. (The Netherlands) and were used in pharmacokinetic experiments. Additional 13 albino and 13 pigmented rats were used in generation of the analytical standards. Young adult (3–4 months; 340–445 g) rats were used.
To conduct the pharmacokinetic study, bromo-containing CAI A15 (molecular structure presented in Table 1) was conveniently converted into [^3H]-A01 through catalytic dehalogenation in tritium gas. A15 (3.05 mg, 8.2 μmol) was dissolved in dimethylformamide (0.3 mL) and exposed to 99 mbar of tritium gas in a tritium manifold system for 1.5 h in the presence of 10% palladium on carbon (0.57 mg). Following filtration, the reaction mixture underwent double lyophilization with 1 mL ethanol to eliminate labile tritium. […] The crude material was purified via high-performance liquid chromatography, employing a Reprosil-Pur C18-HD column (250 × 10 mm, 5 μm), with a mobile phase comprising 40% acetonitrile in 50 mM ammonium hydrogen carbonate. Purified fractions were subsequently combined, subjected to solid-phase extraction, and eluted with ethanol. Radiochemical analysis indicated a purity exceeding 97%, with a molar activity of 0.29 TBq/mmol (7.9 Ci/mmol) and a total activity of 850 MBq (23 mCi). The solution of 1% A01 (10 mg/mL) was prepared similarly as in the IOP study (see Table 1) except that the solution contained also 72 μg/mL of [^3H]–A01 (specific activity 27.21 mCi/mg). The solution was prepared freshly for each experiment.
Seven μL of A01 solution (10 mg/mL including 72 μg/mL of ^3H–A01) was topically applied to both eyes of albino and pigmented rats. Rats were euthanized with carbon dioxide and cervical dislocation. The eyes (n = 4) of albino rats were collected 0.5, 2, 4, and 7 h after treatment. The eyes of pigmented rats were dissected 0.5, 2, 4, 7, 24, 48, 72, 144, and 240 h after eye drop instillation. The eyes were enucleated and dissected immediately after euthanasia. Iris-ciliary body was dissected, snap frozen on dry ice, and stored at −80 °C until analysis. The analyses were conducted within 24 h from tissue dissection.
Bound and unbound radioactivity of tritiated A01 was determined from dissected iris-ciliary body samples. First, the tissues were mechanically homogenized and diluted with 0.9% sodium chloride (weight ratio 35:1). Then, cellular unbound A01 was released from the iris-ciliary body cells by freezing and thawing the solutions three times with dry ice and a water bath (37 °C). Thereafter, the supernatant and pellet were separated by centrifuging the samples for 10 min at 13,000 rpm. The pellets were dissolved by using 60 min incubation in 100 μL of Solvable (PerkinElmer, Waltham, MA, USA). The samples were then bleached with 10 μL of hydrogen peroxide for 30 min. The pellet volume was calculated as the difference between the total and supernatant volumes.
After subtracting the background radioactivity, the measured net counts per minute (cpm) were converted to disintegrations per minute (dpm) taking into account color quenching and device efficiency. Standard curves were generated for each matrix (albino and pigmented supernatants and pellets; Appendix Figure 1). Finally, unbound, bound, and total A01 concentrations (ng/mg) in the iris-ciliary body of the […] were calculated using radioactivity (nCi) per μg of instilled A01 in the eye drops. Signal to noise ratios of measured pellet and supernatant samples in liquid scintillation counting are shown in Appendix Table 3.

[3] = iris-ciliary body, single topical eye drop

ka [1]: 0.57 ± 0.33 10^6 M^–1 s^–1
kd [1]: 1.45 ± 0.15 10^–2 s^–1
Kd ([1]; read-out: KD): 36.9 ± 23.4 nM
concentration at 2 h ([2]; HsdOla/LH (pigmented), rat, topical, 7 µL of 10 mg/mL solution per eye, pigmented iris-ciliary body, 2 h after administration, read-out: bound concentration at 2 h): ~500 ng/g
concentration at 10 days ([2]; HsdOla/LH (pigmented), rat, topical, 7 µL of 10 mg/mL solution per eye, pigmented iris-ciliary body, 10 days, read-out: bound concentration C10 days): 20 ng/g
exposure ratio (AUCpigm/AUCalbino), bound A01 ([2]; iris-ciliary body): 150 and 149.8
exposure ratio (AUCpigm/AUCalbino), total A01 ([2]; iris-ciliary body): 18
exposure ratio (AUCpigm/AUCalbino), unbound A01 ([2]; iris-ciliary body): 9.3
AUC0-last in pigmented tissue, bound A01 [2, 3]: 12.73 (ng/mg) × h
AUC0-last in pigmented tissue, total A01 [2, 3]: 24.72 (ng/mg) × h
AUC0-last in pigmented tissue, unbound A01 [2, 3]: 11.98 (ng/mg) × h
tmax (bound drug) ([2]; pigmented eyes): 24 h
tmax(total drug) ([2]; pigmented eyes): 24 h
Cmax, total concentration ([2]; pigmented iris-ciliary body, at 24 h): 0.36 ng/mg
time over which slow elimination continued ([2]; pigmented iris-ciliary body, total drug): ≥ 10 days
time over which unbound levels were extended ([2]; pigmented iris-ciliary body, below quantitation limit at 6 days): at least 3 days
unbound concentrations ([2]; pigmented rat iris-ciliary body): 10 to 800 nM
bound fraction ([2]; for 72 h): 37–62%
bound fraction ([2]; later than 72 h): about 90%
SMILES: C/C(=N\Nc1ccc(S(N)(=O)=O)cc1)c1cccnc1 [A01]
